US20250296953A1, “3,4-THIAZOLO-STEROIDS AND METHODS OF MAKING AND USING THE SAME” (Arkansas State University - Jonesboro, priority 2018, published 2025)
Read-outs that look alike come from different tables or passages of the source.

How the values were obtained:
[1] = system: 60 different human tumor cell lines; experiment: NCI Development Therapeutics Program 60 cell line screen, one dose; type: cell-based
NCI-H522 (NSCLC) = experiment: NCI 60 one dose screen; type: cell-based, human; conditions: Non-small Cell Lung Cancer
HCT-15 (Colon Cancer) = experiment: NCI 60 one dose screen; type: cell-based, human
SF-539 = experiment: NCI 60 one dose screen; type: cell-based, human; conditions: one dose; CNS Cancer; SF-539
[2] = system: 60 different human tumor cell lines; conditions: for TGI: five dose
glioblastoma (SF-295) = experiment: NCI 60 five dose screen
RPMI-8226 = experiment: NCI 60 five dose screen
SR = experiment: NCI 60 five dose screen

SMILES: C[C@]12CCc3sc(NCCc4ccccc4)nc3C1=CC[C@@H]1[C@@H]2CC[C@]2(C)C(=O)CC[C@@H]12 [IIa.2, (1S,2R,13R,14S,18S)-2,18-dimethyl-7-(2-phenylethylamino)-6-thia-8-azapentacyclo [11.7.0.02,10.05,9.014,18]icosa-5(9),7,10-trien-17-one]
- Growth Percent ([1]; Breast Cancer, BT-549): 60.37%
- Growth Percent ([1]; Breast Cancer, HS 578T): 75.51%
- Growth Percent ([1]; Breast Cancer, MCF7): 20.41%
- Growth Percent ([1]; Breast Cancer, MDA-MB-231/ATCC): 83.12%
- Growth Percent ([1]; Breast Cancer, MDA-MB-468): 32.92%
- Growth Percent ([1]; Breast Cancer, T-47D): 75.21%
- Growth Percent ([1]; CNS Cancer, SF-268): 83.93%
- Growth Percent ([1]; CNS Cancer, SNB-19): 80.20%
- Growth Percent ([1]; CNS Cancer, SNB-75): 85.55%
- Growth Percent ([1]; CNS Cancer, U251): 60.12%
- Growth Percent ([1]; Colon Cancer, COLO 205): 90.61%
- Growth Percent ([1]; Colon Cancer, HCC-2998): 105.58%
- Growth Percent ([1]; Colon Cancer, HCT-116): 21.16%
- Growth Percent ([1]; Colon Cancer, HT29): 34.29%
- Growth Percent ([1]; Colon Cancer, KM12): 74.67%
- Growth Percent ([1]; Colon Cancer, SW-620): 35.34%
- Growth Percent ([1]; Leukemia, CCRF-CEM): 8.44%
- Growth Percent ([1]; Leukemia, HL-60(TB)): 1.45%
- Growth Percent ([1]; Leukemia, K-562): 5.14%
- Growth Percent ([1]; Leukemia, MOLT-4): 4.71%
- Growth Percent ([1]; Leukemia, RPMI-8226): −5.28%
- Growth Percent ([1]; Leukemia, SR): 0.92%
- Growth Percent ([1]; Melanoma, LOX IMVI): 70.22%
- Growth Percent ([1]; Melanoma, M14): 85.36%
- Growth Percent ([1]; Melanoma, MALME-3M): 73.32%
- Growth Percent ([1]; Melanoma, MDA-MB-435): 58.12%
- Growth Percent ([1]; Melanoma, SK-MEL-2): 92.09%
- Growth Percent ([1]; Melanoma, SK-MEL-5): 65.96%
- Growth Percent ([1]; Melanoma, SK-MEL-28): 83.31%
- Growth Percent ([1]; Melanoma, UACC-62): 75.59%
- Growth Percent ([1]; Melanoma, UACC-257): 87.36%
- Growth Percent ([1]; Non-small Cell Lung Cancer, A549/ATCC): 87.76%
- Growth Percent ([1]; Non-small Cell Lung Cancer, EKVX): 92.45%
- Growth Percent ([1]; Non-small Cell Lung Cancer, HOP-62): 101.67%
- Growth Percent ([1]; Non-small Cell Lung Cancer, HOP-92): 66.42%
- Growth Percent ([1]; Non-small Cell Lung Cancer, NCI-H23): 66.61%
- Growth Percent ([1]; Non-small Cell Lung Cancer, NCI-H226): 84.07%
- Growth Percent ([1]; Non-small Cell Lung Cancer, NCI-H322M): 91.89%
- Growth Percent ([1]; Non-small Cell Lung Cancer, NCI-H460): 72.80%
- Growth Percent ([1]; Ovarian Cancer, IGROV1): 87.98%
- Growth Percent ([1]; Ovarian Cancer, NCI/ADR-RES): 70.16%
- Growth Percent ([1]; Ovarian Cancer, OVCAR-3): 6.41%
- Growth Percent ([1]; Ovarian Cancer, OVCAR-4): 74.22%
- Growth Percent ([1]; Ovarian Cancer, OVCAR-5): 100.34%
- Growth Percent ([1]; Ovarian Cancer, OVCAR-8): 72.09%
- Growth Percent ([1]; Ovarian Cancer, SK-OV-3): 111.53%
- Growth Percent ([1]; Prostate Cancer, DU-145): 33.94%
- Growth Percent ([1]; Prostate Cancer, PC-3): 38.82%
- Growth Percent ([1]; Renal Cancer, 786-0): 4.36%
- Growth Percent ([1]; Renal Cancer, A498): 86.92%
- Growth Percent ([1]; Renal Cancer, ACHN): 73.78%
- Growth Percent ([1]; Renal Cancer, CAKI-1): 73.48%
- Growth Percent ([1]; Renal Cancer, RXF 393): 20.01%
- Growth Percent ([1]; Renal Cancer, SN12C): 68.49%
- Growth Percent ([1]; Renal Cancer, TK-10): 91.34%
- Growth Percent ([1]; Renal Cancer, UO-31): 50.44%
- Growth Percent (NCI-H522 (NSCLC)): 44.08%
- Growth Percent (HCT-15 (Colon Cancer)): 22.48%
- Growth Percent (SF-539): 64.79%
- LC50 [2]: >l.00E−4
- TGI ([2]; 786-0 (Renal Cancer)): 9.61E−6
- TGI ([2]; A498 (Renal Cancer)): >1.00E−4
- TGI ([2]; ACHN (Renal Cancer)): 3.75E−6
- TGI ([2]; BT-549 (Breast Cancer)): >1.00E−4
- TGI ([2]; CAKI-1 (Renal Cancer)): 1.11E−5
- TGI ([2]; CCRF-CEM (Leukemia)): 4.04E−5
- TGI ([2]; COLO 205 (Colon Cancer)): 8.77E−6
- TGI ([2]; DU-145 (Prostate Cancer)): >1.00E−4
- TGI ([2]; EKVX (Non-small Cell Lung Cancer)): >1.00E−4
- TGI ([2]; HCC-2998 (Colon Cancer)): >1.00E−4
- TGI ([2]; HCT-15 (Colon Cancer)): 4.49E−6
- TGI ([2]; HCT-116 (Colon Cancer)): 1.23E−5
- TGI ([2]; HL-60(TB) (Leukemia)): 9.10E−6
- TGI ([2]; HOP-62 (Non-small Cell Lung Cancer)): >1.00E−4
- TGI ([2]; HOP-92 (Non-small Cell Lung Cancer)): 9.10E−6
- TGI ([2]; HS 578T (Breast Cancer)): >1.00E−4
- TGI ([2]; HT29 (Colon Cancer)): 8.11E−6
- TGI ([2]; IGROV1 (Ovarian Cancer)): 6.18E−6
- TGI ([2]; K-562 (Leukemia)): >1.00E−4
- TGI ([2]; KM12 (Colon Cancer)): >1.00E−4
- TGI ([2]; LOX IMVI (Melanoma)): 3.17E−6
- TGI ([2]; M14 (Melanoma)): >1.00E−4
- TGI ([2]; MALME-3M (Melanoma)): 6.82E−6
- TGI ([2]; MCF7 (Breast Cancer)): >1.00E−4
- TGI ([2]; MDA-MB-231/ATCC (Breast Cancer)): 2.14E−5
- TGI ([2]; MDA-MB-435 (Melanoma)): >1.00E−4
- TGI ([2]; MDA-MB-468 (Breast Cancer)): 1.03E−5
- TGI ([2]; MOLT-4 (Leukemia)): >1.00E−4
- TGI ([2]; NCI-H23 (Non-small Cell Lung Cancer)): >1.00E−4
- TGI ([2]; NCI-H226 (Non-small Cell Lung Cancer)): 6.57E−6
- TGI ([2]; NCI-H322M (Non-small Cell Lung Cancer)): >1.00E−4
- TGI ([2]; NCI-H460 (Non-small Cell Lung Cancer)): >1.00E−4
- TGI ([2]; NCI-H522 (Non-small Cell Lung Cancer)): 3.64E−6
- TGI ([2]; NCI/ADR-RES (Ovarian Cancer)): 7.52E−6
- TGI ([2]; OVCAR-3 (Ovarian Cancer)): 4.83E−6
- TGI ([2]; OVCAR-4 (Ovarian Cancer)): >1.00E−4
- TGI ([2]; OVCAR-5 (Ovarian Cancer)): 6.59E−5
- TGI ([2]; OVCAR-8 (Ovarian Cancer)): >1.00E−4
- TGI ([2]; PC-3 (Prostate Cancer)): >1.00E−4
- TGI ([2]; RXF 393 (Renal Cancer)): 4.49E−6
- TGI ([2]; SF-268 (CNS Cancer)): >1.00E−4
- TGI ([2]; SK-MEL-2 (Melanoma)): >1.00E−4
- TGI ([2]; SK-MEL-5 (Melanoma)): 5.27E−5
- TGI ([2]; SK-MEL-28 (Melanoma)): 1.89E−5
- TGI ([2]; SK-OV-3 (Ovarian Cancer)): >1.00E−4
- TGI ([2]; SN12C (Renal Cancer)): >1.00E−4
- TGI ([2]; SNB-19 (CNS Cancer)): >1.00E−4
- TGI ([2]; SW-620 (Colon Cancer)): 5.28E−6
- TGI ([2]; T-47D (Breast Cancer)): 2.52E−5
- TGI ([2]; TK-10 (Renal Cancer)): >1.00E−4
- TGI ([2]; U251 (CNS Cancer)): >1.00E−4
- TGI ([2]; UACC-62 (Melanoma)): 1.06E−5
- TGI ([2]; UACC-257 (Melanoma)): 7.98E−5
- TGI ([2]; UO-31 (Renal Cancer)): 2.51E−5
- GI50 (glioblastoma (SF-295); Homo sapiens, SF-295): 18.9 µM
- CC50 (glioblastoma (SF-295); Homo sapiens, SF-295, read-out: LC50): > 100 µM
- TGI (glioblastoma (SF-295); SF-295 (CNS Cancer), five dose): >1.00E−4
- GI50 (RPMI-8226; Homo sapiens, RPMI-8226): 1.79 µM
- CC50 (RPMI-8226; Homo sapiens, RPMI-8226, read-out: LC50): > 100 µM
- TGI (RPMI-8226; RPMI-8226 (Leukemia), five dose): 5.69E−6
- GI50 (SR; Homo sapiens, SR): 3.07 µM
- CC50 (SR; Homo sapiens, SR, read-out: LC50): > 100 µM
- TGI (SR; SR (Leukemia), five dose): >1.00E−4
